Results from US8318757B2, “Substituted isoxazoline compound and pest control agent” (Nissan Chemical Industries, Ltd., priority 2007, dated 2012).
Like-named read-outs stand apart in the source and are kept apart here.

Experiments:
Format in all cases: in vivo
[1] = system: Liriomyza trifolii; assay: whole plant or invertebrate; details: 144 h
Protocol: (§1) A 10% emulsifiable concentrate of the compound of the present invention (depending on the type of the compound, a 10% wettable powder was subjected to the test) was diluted with water containing a spreader to prepare a drug solution in a concentration of 500 ppm. In this drug solution, a leaf of kidney bean which was cut out to a diameter of 7 cm, on which Liriomyza trifolii laid eggs (10 eggs/leaf) was immersed for about 10 seconds and was air-dried and then laid on a wet filtration paper laid in a styrol cup having an inner diameter of 7 cm. The styrol cup was capped and stored in a thermostatic room of 25° C. The number of killed larvae after 6 days was measured and the mortality was calculated from the same calculation formula as that in Test Example 1. Here, the test was carried out on the duplicate samples.

[2] = system: Bemisia argentifolii; assay: whole plant or invertebrate; details: 144 h
Protocol: (§2) In a styrol cup having an inner diameter of 7 cm, a wet filtration paper was laid and on the paper, a cut-out leaf of tomato on which Bemisia argentifolii laid eggs (10 eggs/leaf) was laid. A 10% emulsifiable concentrate of the compound of the present invention (depending on the type of the compound, a 10% wettable powder was subjected to the test) was diluted with water containing a spreader to prepare a drug solution in a concentration of 500 ppm. The drug solution was sprayed using a rotary spray tower in an amount of 2.5 mL per styrol cup, and the cup was capped and stored in a thermostatic room of 25° C. The number of killed larvae after 6 days was measured and the mortality was calculated from the same calculation formula as that in Test Example 1. Here, the test was carried out on the duplicate samples.

[3] = system: Spodoptera exigua; assay: Mortality Test for Spodoptera exigua; details: 144 h
Protocol: as §1, with “100” for “500”, “cabbage” for “kidney bean which was cut out to a diameter of 7 cm, on which Liriomyza trifolii laid eggs (10 eggs/leaf)”, “put into” for “laid on”, “petri dish. In the petri dish, five 2 instar larvae” for “wet filtration paper laid in a styrol cup having an inner diameter”, “Spodoptera exigua per petri dish were released and the petri dish” for “7 cm. The styrol cup”

[4] = system: Spodoptera litura; assay: whole plant or invertebrate; details: 144 h
Protocol: as §1, with “10” for “500”, “cabbage” for “kidney bean which was cut out to a diameter of 7 cm, on which Liriomyza trifolii laid eggs (10 eggs/leaf)”, “put into” for “laid on”, “petri dish. In the petri dish, five 2 instar larvae” for “wet filtration paper laid in a styrol cup having an inner diameter”, “Spodoptera litura per petri dish were released and the petri dish” for “7 cm. The styrol cup”

[5] = system: Myzus persicae; assay: whole plant or invertebrate; details: 144 h
Protocol: In a glass petri dish having an inner diameter of 3 cm, a wet absorbent cotton was laid and on the cotton, a leaf of cabbage cut out so as to have the same diameter as the inner diameter of the petri dish was laid, followed by releasing four apterous imagines of Myzus persicae on the leaf. After one day, a 10% emulsifiable concentrate of the compound of the present invention (depending on the type of the compound, a 10% wettable powder was subjected to the test) was diluted with water containing a spreader to prepare a drug solution in a concentration of 500 ppm. The drug solution was sprayed using a rotary spray tower (2.5 mg/cm^2), and the petri dish was capped and stored in a thermostatic room of 25° C. The number of killed imagines after 6 days was measured and the mortality was calculated from the same calculation formula as that in Test Example 1. Here, the test was carried out on the duplicate samples.

[6] = system: Aculops pelekassi; assay: whole plant or invertebrate; details: 144 h
Protocol: as §2, with “a” for “a cut-out”, “mandarin orange cut out so as to have the same diameter as the inner diameter of the cup” for “tomato on which Bemisia argentifolii laid eggs (10 eggs/leaf)”, “laid, followed by inoculating ten larvae of Aculops pelekassi per leaf with the leaf.” for “laid.”, “100” for “500”

[7] = system: Nilaparvata lugens; assay: whole plant or invertebrate; details: 144 h
Protocol: as §1, with “leaf sheath” for “leaf”, “rice” for “kidney bean which was cut out to a diameter of 7 cm, on which Liriomyza trifolii laid eggs (10 eggs/leaf)”, “put into” for “laid on”, “test tube. In the test tube, five 2 instar larvae” for “wet filtration paper laid in a styrol cup having an inner diameter”, “Nilaparvata lugens per test tube were released and the test tube” for “7 cm. The styrol cup”, “capped with a sponge” for “capped”

[8] = system: Plutella xylostella; assay: whole plant or invertebrate; details: 144 h
Protocol: (§3) A 10% emulsifiable concentrate of the compound of the present invention (depending on the type of the compound, a 10% wettable powder was subjected to the test) was diluted with water containing a spreader to prepare a drug solution in a concentration of 10 ppm. In this drug solution, a leaf of cabbage was immersed for about 10 seconds and was air-dried and then put into a petri dish. In the petri dish, five 2 instar larvae of Plutella xylostella per petri dish were released and the petri dish was capped and stored in a thermostatic room of 25° C. The number of killed larvae after 6 days was measured and the mortality was calculated from the following calculation formula: Mortality (%)=(number of killed insect/number of released insect)×100. Here, the test was carried out on the duplicate samples.

[9] = system: Homona magnanima; assay: Mortality Test for Homona magnanima; details: in Brassica oleracea, 144 h
Protocol: as §3, with “of 100” for “of 10”, “of Homona magnanima” for “of Plutella xylostella”, “the same” for “the following”, “calculation formula as that in Test Example 1.” for “calculation formula: Mortality (%)=(number of killed insect/number of released insect)×100.”

[10] = system: Tetranychus urticae; assay: whole plant or invertebrate; details: in Phaseolus vulgaris, 144 h
Protocol: as §2, with “a” for “a cut-out”, “kidney bean cut out so as to have the same diameter as the inner diameter of the cup” for “tomato on which Bemisia argentifolii laid eggs (10 eggs/leaf)”, “laid, followed by inoculating ten larvae of Tetranychus urticae per leaf with the leaf.” for “laid.”

[11] = system: Frankliniella occidentalis; assay: whole plant or invertebrate; details: in Phaseolus vulgaris, 48 h
Protocol: as §2, with “a” for “a cut-out”, “kidney bean cut out so as to have the same diameter as the inner diameter of the cup” for “tomato on which Bemisia argentifolii laid eggs (10 eggs/leaf)”, “laid, followed by inoculating ten 1 instar larvae of Frankliniella occidentalis per leaf with the leaf.” for “laid.”, “2” for “6”

[12] = system: Cat Flea; assay: Mortality Test for Cat Flea; details: Ctenocephalides felis, 96 h
Protocol: To the bottom surface and the side surface of a petri dish having an inner diameter of 5.3 cm, 400 μL of an acetone solution in which 4 mg of the compound of the present invention was dissolved in 40 mL of acetone (concentration: 100 ppm) was applied and then acetone was volatilized to form a thin film of the compound of the present invention on the inner wall of the petri dish. […] In the petri dish, ten Ctenocephalides felis imagines (male and female were mixed) were released and the petri dish was capped and stored in a thermostat room of 25° C. The number of killed imagines after 4 days was measured and the mortality was calculated from the same calculation formula as that in Test Example 1. Here, the test was carried out on the single sample.

[13] = system: American Dog Tick; assay: Mortality Test for American Dog Tick; details: Dermacentor variabilis, 96 h; thin film in petri dishes, applied drug 0.1 μg/cm^2; protonymphs; after 4 days
Protocol: To the bottom surface and the side surface of two petri dishes having an inner diameter of 5.3 cm, 400 μL of an acetone solution in which 4 mg of the compound of the present invention was dissolved in 40 mL of acetone (concentration: 100 ppm) was applied and then acetone was volatilized to form a thin film of the compound of the present invention on the inner wall of the petri dishes. […] In one of the petri dishes, ten American dog tick (Dermacentor variabilis) protonymphs (male and female were mixed) were released, and the petri dish was capped with the other petri dish. […] The number of killed protonymphs after 4 days was measured and the mortality was calculated from the same calculation formula as that in Test Example 1. Here, the test was carried out on the single sample.

[14] = drug solution 100 ppm (mark *), cabbage leaf immersed, 2 instar larvae, after 6 days, read-out: mortality

CS(=O)(=O)CC(=O)NCc1ccc(C2=NOC(c3cc(Br)cc(C(F)(F)F)c3)(C(F)(F)F)C2)cc1Cl (stereo not drawn) [1-113, N-[4-[5-[3-bromo-5-(trifluoromethyl)phenyl]-5-trifluoromethyl-4,5-dihydroisoxazole-3-yl]-2-chlorophenyl]methyl-2-(methylsulfonyl)acetamide]
≥ 80%: mortality at 500 ppm ([1]; drug solution 500 ppm, kidney bean leaf with eggs immersed, after 6 days, read-out: mortality) | mortality at 500 ppm ([2]; drug solution 500 ppm sprayed, tomato leaf with eggs, after 6 days, read-out: mortality) | mortality at 100 ppm ([3]; drug solution 100 ppm, cabbage leaf immersed, 2 instar larvae, after 6 days, read-out: mortality) | mortality at 100 ppm [4, 14] | mortality at 500 ppm ([5]; drug solution 500 ppm sprayed, cabbage leaf, apterous imagines, after 6 days, read-out: mortality) | mortality at 100 ppm ([6]; drug solution 100 ppm sprayed, mandarin orange leaf, larvae, after 6 days, read-out: mortality) | mortality at 500 ppm ([7]; drug solution 500 ppm, rice leaf sheath immersed, 2 instar larvae, after 6 days, read-out: mortality) | mortality at 100 ppm [8, 14] | mortality at 100 ppm [9]

CCS(=O)(=O)CC(=O)N(C)Cc1ccc(C2=NOC(c3cc(Cl)c(Cl)c(Cl)c3)(C(F)(F)F)C2)cc1Cl (stereo not drawn) [2-005, N-[2-chloro-4-[5-(3,4,5-trichlorophenyl)-5-trifluoromethyl-4,5-dihydroisoxazole-3-yl]phenyl]methyl-2-ethylsulfonyl-N-methylacetamide]
≥ 80%: mortality at 500 ppm ([1]; in Phaseolus vulgaris) | mortality at 500 ppm ([2]; in Solanum lycopersicum) | mortality at 500 ppm [10] | mortality at 500 ppm ([5]; in Brassica oleracea) | mortality at 500 ppm [11] | mortality at 500 ppm ([7]; in Oryza sativa) | mortality at 100 ppm [9]

CS(CC(=O)NCc1ccc(C2=NOC(c3cc(Cl)c(Cl)c(C(F)(F)F)c3)(C(F)(F)F)C2)cc1Br)=NC(=O)C(F)(F)F (stereo not drawn) [1-102, N-[2-bromo-4-[5-[3,4-dichloro-5-(trifluoromethyl)phenyl]-5-trifluoromethyl-4,5-dihydroisoxazole-3-yl]phenyl]methyl-2-[N-(trifluoroacetyl)methylsulfinimidoyl]acetamide]
≥ 80%: mortality at 100 ppm ([3]; in Brassica oleracea) | mortality at 10 ppm ([4]; in Brassica oleracea) | mortality at 100 ppm [6] | mortality at 10 ppm ([8]; in Brassica oleracea)

CSC(SC)C(=O)NCc1ccc(C2=NOC(c3cc(C(F)(F)F)cc(C(F)(F)F)c3)(C(F)(F)F)C2)cc1Cl (stereo not drawn) [1-206, N-[4-[5-[3,5-bis(trifluoromethyl)phenyl]-5-trifluoromethyl-4,5-dihydroisoxazole-3-yl]-2-chlorophenyl]methyl-2,2-bis(methylthio)acetamide]
≥ 80%: mortality at 100 ppm ([3]; in Brassica oleracea) | mortality at 1 µg/cm2 [12] | mortality at 0.1 µg/cm2 [13] | mortality at 100 ppm [6]

CCSCC(=O)N(C)Cc1ccc(C2=NOC(c3cc(Cl)c(Cl)c(Cl)c3)(C(F)(F)F)C2)cc1Cl (stereo not drawn) [2-002, N-[2-chloro-4-[5-(3,4,5-trichlorophenyl)-5-trifluoromethyl-4,5-dihydroisoxazole-3-yl]phenyl]methyl-2-ethylthio-N-methylacetamide]
≥ 80%: mortality at 500 ppm ([2]; in Solanum lycopersicum) | mortality at 500 ppm [10] | mortality at 500 ppm ([5]; in Brassica oleracea) | mortality at 500 ppm [11] | mortality at 500 ppm ([7]; in Oryza sativa) | mortality at 100 ppm [9]
